Our source for the IC50 values is patent US11066396B2 (priority 2016, dated 2021).

The target of one assay is HDAC8 (Homo sapiens (Human), UniProt Q9BY41). The note with it: read-out: HDAC8 IC50.
A further assay concerns the target HDAC5 (Homo sapiens (Human), UniProt Q9UQL6). Particulars: read-out: HDAC5 IC50.
The target in another assay is HDAC1 (Homo sapiens (Human), UniProt Q13547). The note with it: read-out: HDAC1 IC50.
Sequence of HDAC1 (Q13547 whole entry): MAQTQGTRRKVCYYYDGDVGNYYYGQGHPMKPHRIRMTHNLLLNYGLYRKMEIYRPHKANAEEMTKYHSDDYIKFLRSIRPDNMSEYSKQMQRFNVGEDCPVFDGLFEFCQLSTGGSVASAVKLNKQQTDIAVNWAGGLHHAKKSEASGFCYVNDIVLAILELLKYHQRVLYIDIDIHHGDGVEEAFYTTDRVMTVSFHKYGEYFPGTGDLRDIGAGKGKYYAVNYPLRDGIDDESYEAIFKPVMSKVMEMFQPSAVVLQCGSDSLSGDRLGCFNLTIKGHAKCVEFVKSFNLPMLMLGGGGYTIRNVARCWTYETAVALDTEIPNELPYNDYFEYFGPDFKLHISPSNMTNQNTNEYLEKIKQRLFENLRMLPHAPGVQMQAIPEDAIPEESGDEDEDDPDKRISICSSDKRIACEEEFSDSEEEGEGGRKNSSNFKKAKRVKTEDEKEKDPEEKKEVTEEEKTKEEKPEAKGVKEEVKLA

Sequence of HDAC8 (Q9BY41 whole entry): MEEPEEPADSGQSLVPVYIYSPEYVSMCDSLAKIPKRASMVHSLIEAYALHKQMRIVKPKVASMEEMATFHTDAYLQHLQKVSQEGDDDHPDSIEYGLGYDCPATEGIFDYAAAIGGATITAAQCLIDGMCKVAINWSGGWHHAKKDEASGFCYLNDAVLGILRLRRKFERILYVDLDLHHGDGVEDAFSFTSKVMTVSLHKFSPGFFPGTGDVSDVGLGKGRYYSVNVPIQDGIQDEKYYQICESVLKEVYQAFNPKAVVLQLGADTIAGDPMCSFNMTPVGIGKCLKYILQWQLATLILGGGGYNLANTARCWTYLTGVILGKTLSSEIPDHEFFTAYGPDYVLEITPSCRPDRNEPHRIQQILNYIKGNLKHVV
Sequence of HDAC5 (Q9UQL6 656-1122): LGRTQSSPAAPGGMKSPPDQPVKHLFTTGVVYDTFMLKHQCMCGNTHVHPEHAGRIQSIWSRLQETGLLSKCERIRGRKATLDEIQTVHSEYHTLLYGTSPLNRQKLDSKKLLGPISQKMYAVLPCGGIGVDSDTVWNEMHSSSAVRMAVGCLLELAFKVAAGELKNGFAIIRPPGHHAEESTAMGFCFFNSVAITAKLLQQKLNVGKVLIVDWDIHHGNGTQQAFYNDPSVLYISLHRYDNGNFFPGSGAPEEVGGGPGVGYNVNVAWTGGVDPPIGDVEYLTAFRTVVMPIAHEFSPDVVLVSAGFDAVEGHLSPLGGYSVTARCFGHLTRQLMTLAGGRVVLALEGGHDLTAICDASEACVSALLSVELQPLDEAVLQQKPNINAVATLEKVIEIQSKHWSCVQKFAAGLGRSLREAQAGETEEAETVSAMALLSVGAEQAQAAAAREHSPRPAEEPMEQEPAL

Consider `CC(C)NC(=O)OCc1ccc(-c2noc(C(F)(F)F)n2)cn1` [Example 192, (5-(5-(Trifluoromethyl)-1,2,4-oxadiazol-3-yl)pyridin-2-yl)methyl isopropylcarbamate], for which the IC50 at HDAC8 was 1800 nM; at HDAC5 it was 640 nM; on HDAC1, 660 nM.

For the compound `CNC(=O)OCc1ccc(-c2noc(C(F)(F)F)n2)cn1` [Example 194, {5-[5-(trifluoromethyl)-1,2,4-oxadiazol-3-yl]pyridin-2-yl}methyl methylcarbamate], the IC50 at HDAC8 came to 1300 nM; on HDAC5, 610 nM; at HDAC1, 1700 nM.

`O=C(NC1CCOCC1)OCc1ccc(-c2noc(C(F)(F)F)n2)cn1` [Example 195, {5-[5-(trifluoromethyl)-1,2,4-oxadiazol-3-yl]pyridin-2-yl}methyl oxan-4-ylcarbamate]: the 50% inhibitory concentration (IC50) at HDAC8 was found to be 1600 nM; on HDAC5 it was 660 nM; on HDAC1, 780 nM.

With `CN(C(=O)[C@@H]1COCC(=O)N1c1ccc(-c2noc(C(F)(F)F)n2)c(F)c1)C(C)(C)C` [Example 196, (3S)-N-tert-butyl-4-{3-fluoro-4-[5-(trifluoromethyl)-1,2,4-oxadiazol-3-yl]phenyl}-N-methyl-5-oxomorpholine-3-carboxamide], the IC50 at HDAC8 is 6300 nM; at HDAC5, 300 nM; at HDAC1, 6900 nM.

For `O=C(OCCOCCCl)[C@@H]1CCC(=O)N1c1ccc(-c2noc(C(F)(F)F)n2)c(F)c1` [Example 197, 2-(2-chloroethoxy)ethyl 1-{3-fluoro-4-[5-(trifluoromethyl)-1,2,4-oxadiazol-3-yl]phenyl}-5-oxo-L-prolinate], the concentration for half-maximal inhibition (IC50) at HDAC8 is 110 nM; on HDAC5, 50 nM; on HDAC1, 1200 nM.

`COC(=O)N1CCC(C(=O)N(Cc2ccc(-c3noc(C(F)(F)F)n3)cn2)c2cccc(C(F)(F)F)c2)CC1` [Example 198, methyl 4-{({5-[5-(trifluoromethyl)-1,2,4-oxadiazol-3-yl]pyridin-2-yl}methyl)[3-(trifluoromethyl)phenyl]carbamoyl}piperidine-1-carboxylate]: the figures for the IC50 on HDAC8, at HDAC5 and at HDAC1 were 1300 nM, 650 nM and 480 nM, respectively.

Consider `FC(F)(F)c1nc(-c2ccnc(OCc3nc4ccccc4[nH]3)c2)no1` [Example 200, 2-[({4-[5-(trifluoromethyl)-1,2,4-oxadiazol-3-yl]pyridin-2-yl}oxy)methyl]-1H-benzimidazole], for which the results for the IC50 at HDAC8, at HDAC5 and on HDAC1 were 970 nM, 460 nM and 450 nM, respectively.

Consider `O=C(C1CCS(=O)(=O)CC1)N(Cc1ccc(-c2noc(C(F)(F)F)n2)cn1)c1ccccc1C(F)(F)F` [Example 201, 1,1-dioxo-N-({5-[5-(trifluoromethyl)-1,2,4-oxadiazol-3-yl]pyridin-2-yl}methyl)-N-[2-(trifluoromethyl)phenyl]-llambda~6~-thiane-4-carboxamide], for which the figures for the half-inhibitory concentration (IC50) at HDAC8, on HDAC5 and at HDAC1 were 9200 nM, 1400 nM and 4000 nM, respectively.

For the compound `Cc1ccncc1COc1ccc(-c2noc(C(F)(F)F)n2)cn1` [Example 202, 2-[(4-methylpyridin-3-yl)methoxy]-5-[5-(trifluoromethyl)-1,2,4-oxadiazol-3-yl]pyridine], the values for the IC50 on HDAC8, on HDAC5 and at HDAC1 were 900 nM, 730 nM and 2200 nM, respectively.

On to `Fc1cc(COc2cccc3[nH]nnc23)ccc1-c1noc(C(F)(F)F)n1` [Example 227, 4-({3-fluoro-4-[5-(trifluoromethyl)-1,2,4-oxadiazol-3-yl]phenyl}methoxy)-1H-benzotriazole], for which the IC50 on HDAC8 was 730 nM; on HDAC5 it was 65 nM; on HDAC1 it was 1500 nM.

Regarding `Fc1cc(COc2nncc3ccccc23)ccc1-c1noc(C(F)(F)F)n1` [Example 228, 1-({3-fluoro-4-[5-(trifluoromethyl)-1,2,4-oxadiazol-3-yl]phenyl}methoxy)phthalazine], the IC50 was 2000 nM at HDAC8, 140 nM at HDAC5 and 4300 nM at HDAC1.

`Cn1nccc1OCc1ccc(-c2noc(C(F)(F)F)n2)c(F)c1` [Example 229, 3-(2-fluoro-4-{[(1-methyl-1H-pyrazol-5-yl)oxy]methyl}phenyl)-5-(trifluoromethyl)-1,2,4-oxadiazole]: the IC50 was found to be 4800 nM on HDAC8, 140 nM at HDAC5 and 3700 nM at HDAC1.

As for `Fc1cnc(OCc2ccc(-c3noc(C(F)(F)F)n3)c(F)c2)nc1` [Example 230, 5-fluoro-2-({3-fluoro-4-[5-(trifluoromethyl)-1,2,4-oxadiazol-3-yl]phenyl}methoxy)pyrimidine], the IC50 amounted to 540 nM at HDAC8, 200 nM on HDAC5 and 8500 nM at HDAC1.

Take `O=C1NCCc2c(OCc3ccc(-c4noc(C(F)(F)F)n4)c(F)c3)cccc21` [Example 231, 5-({3-fluoro-4-[5-(trifluoromethyl)-1,2,4-oxadiazol-3-yl]phenyl}methoxy)-3,4-dihydroisoquinolin-1(2H)-one]: the IC50 on HDAC8 is 45000 nM; at HDAC5 it was 110 nM; on HDAC1 it was 6900 nM.

For the compound `Fc1cc(COc2cc[nH]n2)ccc1-c1noc(C(F)(F)F)n1` [Example 232, 3-(2-fluoro-4-{[(1H-pyrazol-3-yl)oxy]methyl}phenyl)-5-(trifluoromethyl)-1,2,4-oxadiazole], the IC50 on HDAC8 was 1300 nM; on HDAC5 it was 67 nM; on HDAC1, 3000 nM.

As for `Cn1cccc(OCc2ccc(-c3noc(C(F)(F)F)n3)c(F)c2)c1=O` [Example 233, 3-({3-fluoro-4-[5-(trifluoromethyl)-1,2,4-oxadiazol-3-yl]phenyl}methoxy)-1-methylpyridin-2(1H)-one], the IC50 on HDAC8 was 2200 nM; at HDAC5, 170 nM; on HDAC1, 1600 nM.

Turning to `Fc1cc(COc2ccc3cnccc3n2)ccc1-c1noc(C(F)(F)F)n1` [Example 234, 2-({3-fluoro-4-[5-(trifluoromethyl)-1,2,4-oxadiazol-3-yl]phenyl}methoxy)-1,6-naphthyridine], the IC50 at HDAC8 was determined as 640 nM; at HDAC5, 8.4 nM; on HDAC1 it was 370 nM.

With `Fc1cc(COc2cncnc2)ccc1-c1noc(C(F)(F)F)n1` [Example 236, 5-({3-fluoro-4-[5-(trifluoromethyl)-1,2,4-oxadiazol-3-yl]phenyl}methoxy)pyrimidine], the IC50 is 2100 nM at HDAC8, 42 nM on HDAC5 and 3100 nM at HDAC1.

As for `Cc1cc(OCc2ccc(-c3noc(C(F)(F)F)n3)c(F)c2)cc(C)n1` [Example 237, 4-({3-fluoro-4-[5-(trifluoromethyl)-1,2,4-oxadiazol-3-yl]phenyl}methoxy)-2,6-dimethylpyridine], the IC50 at HDAC8 was 5300 nM; at HDAC5 it was 230 nM; at HDAC1, 1800 nM.

Take `COc1cnnc(OCc2ccc(-c3noc(C(F)(F)F)n3)c(F)c2)c1` [Example 239, 3-({3-fluoro-4-[5-(trifluoromethyl)-1,2,4-oxadiazol-3-yl]phenyl}methoxy)-5-methoxypyridazine]: the figures for the IC50 on HDAC8, at HDAC5 and on HDAC1 were 2400 nM, 190 nM and 5900 nM, respectively.

With `Fc1cc(COc2ccc3ncnn3c2)ccc1-c1noc(C(F)(F)F)n1` [Example 240, 6-({3-fluoro-4-[5-(trifluoromethyl)-1,2,4-oxadiazol-3-yl]phenyl}methoxy)[1,2,4]triazolo[1,5-a]pyridine], the values for the IC50 on HDAC8, on HDAC5 and at HDAC1 were 11000 nM, 78 nM and 1500 nM, respectively.

For `Cc1nccc(OCc2ccc(-c3noc(C(F)(F)F)n3)c(F)c2)n1` [Example 241, 4-({3-fluoro-4-[5-(trifluoromethyl)-1,2,4-oxadiazol-3-yl]phenyl}methoxy)-2-methylpyrimidine], the IC50 on HDAC8 came out at 3000 nM; on HDAC5, 48 nM; at HDAC1, 3200 nM.

Take `Fc1cc(COc2cc(C(F)F)ncn2)ccc1-c1noc(C(F)(F)F)n1` [Example 242, 4-(difluoromethyl)-6-({3-fluoro-4-[5-(trifluoromethyl)-1,2,4-oxadiazol-3-yl]phenyl}methoxy)pyrimidine]: the half-maximal inhibitory concentration (IC50) is 1700 nM on HDAC8, 110 nM at HDAC5 and 2900 nM at HDAC1.

With `COc1ccc(OCc2ccc(-c3noc(C(F)(F)F)n3)c(F)c2)nc1` [Example 243, 2-({3-fluoro-4-[5-(trifluoromethyl)-1,2,4-oxadiazol-3-yl]phenyl}methoxy)-5-methoxypyridine], the IC50 amounted to 1600 nM on HDAC8, 50 nM at HDAC5 and 1500 nM at HDAC1.

Take `Cc1cncnc1OCc1ccc(-c2noc(C(F)(F)F)n2)c(F)c1` [Example 244, 4-({3-fluoro-4-[5-(trifluoromethyl)-1,2,4-oxadiazol-3-yl]phenyl}methoxy)-5-methylpyrimidine]: the results for the IC50 at HDAC8, on HDAC5 and at HDAC1 were 1900 nM, 130 nM and 3300 nM, respectively.

In the case of `Fc1cc(COc2cnc3c(c2)COC3)ccc1-c1noc(C(F)(F)F)n1` [Example 245, 3-({3-fluoro-4-[5-(trifluoromethyl)-1,2,4-oxadiazol-3-yl]phenyl}methoxy)-5,7-dihydrofuro[3,4-b]pyridine], the IC50 at HDAC8 was 3400 nM; on HDAC5 it was 180 nM; at HDAC1, 1500 nM.

Turning to `COc1ncccc1OCc1ccc(-c2noc(C(F)(F)F)n2)c(F)c1` [Example 246, 3-({3-fluoro-4-[5-(trifluoromethyl)-1,2,4-oxadiazol-3-yl]phenyl}methoxy)-2-methoxypyridine], the results for the IC50 on HDAC8, at HDAC5 and at HDAC1 were 45000 nM, 120 nM and 2400 nM, respectively.

Consider `Cc1nc(OCc2ccc(-c3noc(C(F)(F)F)n3)c(F)c2)c2cnn(C)c2n1` [Example 248, 4-({3-fluoro-4-[5-(trifluoromethyl)-1,2,4-oxadiazol-3-yl]phenyl}methoxy)-1,6-dimethyl-1H-pyrazolo[3,4-d]pyrimidine], for which the IC50 at HDAC8 is 2600 nM; on HDAC5, 59 nM; on HDAC1, 2600 nM.
